Results reported in ChEMBL document CHEMBL1201862, “PubChem BioAssay data set” (2004).
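Dose response: 5 concentrations. Exposure: 48 h. Format: 96-well plates. Endpoint: linear interpolation; highest concentration if not reached. Abbreviation: GI50, concentration required for 50% inhibition of growth.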 Activity calls are given as the source filed them. Cut-off read from the data, not from the text of the source: active = GI50 up to about 1.1 µM and inactive = higher.

How the values were obtained:
Experiment in all cases: NCI tumour cell line growth inhibition, 48 h
A498 = system: A498
ACHN = system: ACHN
CAKI-1 = system: CAKI-1
EKVX = system: EKVX
HCT-116 = system: HCT-116
HCT-15 = system: HCT-15
KM12 = system: KM12
MDA-MB-435 = system: MDA-MB-435
MOLT-4 = system: MOLT-4
Malme-3M = system: Malme-3M
NCI-H226 = system: NCI-H226
NCI-H23 = system: NCI-H23
NCI/ADR-RES = system: NCI/ADR-RES
RXF 393 = system: RXF 393
SF-295 = system: SF-295
SK-MEL-5 = system: SK-MEL-5
SR = system: SR
SW-620 = system: SW-620
UACC-62 = system: UACC-62
UO-31 = system: UO-31

SMILES | GI50 (A498) | GI50 (ACHN) | GI50 (CAKI-1) | GI50 (EKVX) | GI50 (HCT-116) | GI50 (HCT-15) [µM] | GI50 (KM12) | GI50 (MDA-MB-435) | GI50 (MOLT-4) | GI50 (Malme-3M) | GI50 (NCI-H226) | GI50 (NCI-H23) | GI50 (NCI/ADR-RES) | GI50 (RXF 393) | GI50 (SF-295) | GI50 (SK-MEL-5) | GI50 (SR) | GI50 (SW-620) | GI50 (UACC-62) | GI50 (UO-31)
O=C1CC2OCC=C3CN4CCC5(C(=O)O)C(N1)C2C3CC45 (stereo not given) | > 100 µM (inactive) | > 100 µM (inactive) | > 100 µM (inactive) | > 100 µM (inactive) | > 100 µM (inactive) | > 100 | > 100 µM (inactive) | > 100 µM (inactive) | > 100 µM (inactive) | > 100 µM (inactive) | > 100 µM (inactive) | > 100 µM (inactive) | > 100 µM (inactive) | > 100 µM (inactive) | > 100 µM (inactive) | > 100 µM (inactive) | > 100 µM (inactive) | > 100 µM (inactive) | > 100 µM (inactive) | > 100 µM (inactive)
CC(=O)Nc1ccc2c3c(cc(O)c2c1)N(C(=O)CCCCCC(=O)N1CC(CCl)c2c1cc(O)c1cc(NC(C)=O)ccc21)CC3CCl (stereo not given) | 0.0109 µM (active) | < 0.01 µM (active) | 0.0123 µM (active) | 0.193 µM (active) | 0.0101 µM (active) | 0.377 | 0.0416 µM (active) | 0.0191 µM (active) | < 0.01 µM (active) | 0.0125 µM (active) | < 0.0149 µM (active) | < 0.01 µM (active) | 1.38 µM (inactive) | 0.0152 µM (active) | 0.0156 µM (active) | 0.0109 µM (active) | < 0.01 µM (active) | 0.13 µM (active) | < 0.01 µM (active) | 0.105 µM (active)
CC1=C(CCC(C)CO)O[C@H]2C[C@H]3[C@@H]4CC[C@H]5C[C@@H](O)CC[C@]5(C)[C@H]4CC(=O)[C@]3(C)[C@@H]12 (stereo not given in full) | 20.3 µM (inactive) | 17.5 µM (inactive) | 27.7 µM (inactive) | 29.9 µM (inactive) | 17.5 µM (inactive) | 17.1 | 11.3 µM (inactive) | 18.9 µM (inactive) | 3.61 µM (inactive) | 19.1 µM (inactive) | 27.2 µM (inactive) | 14.9 µM (inactive) | 9.48 µM (inactive) | 29.1 µM (inactive) | 1.27 µM (inactive) | 8.18 µM (inactive) | 13.4 µM (inactive) | 35.6 µM (inactive) | 6.17 µM (inactive) | 12.4 µM (inactive)
Nc1nc(SCC(=O)O)nc(O)c1N | > 100 µM (inactive) | > 100 µM (inactive) | > 100 µM (inactive) | > 100 µM (inactive) | 35.6 µM (inactive) | > 100 | > 100 µM (inactive) | 32.3 µM (inactive) | 37.6 µM (inactive) | > 100 µM (inactive) | > 100 µM (inactive) | > 100 µM (inactive) | > 100 µM (inactive) | > 100 µM (inactive) | > 100 µM (inactive) | > 100 µM (inactive) | 22.6 µM (inactive) | 31 µM (inactive) | > 100 µM (inactive) | > 100 µM (inactive)
Oc1c(CN2CCOCC2)ccc(CN2CCOCC2)c1O | > 100 µM (inactive) | 30.9 µM (inactive) | 52 µM (inactive) | 50.8 µM (inactive) | 38 µM (inactive) | 34 | 75.7 µM (inactive) | 81.7 µM (inactive) | 24.2 µM (inactive) | 31 µM (inactive) | 28.4 µM (inactive) | 36.6 µM (inactive) | 30.1 µM (inactive) | 29.2 µM (inactive) | 26 µM (inactive) | 25.5 µM (inactive) | 24.5 µM (inactive) | 83.6 µM (inactive) | 25.2 µM (inactive) | 18 µM (inactive)
O=C1/C(=C/c2n[nH]cc2-c2ccc(Cl)cc2)C(=O)N(c2ccccc2)C1c1ccccc1 (stereo not given) | 20.6 µM (inactive) | 20.1 µM (inactive) | 10.1 µM (inactive) | 20.7 µM (inactive) | 12.5 µM (inactive) | 15 | 20.9 µM (inactive) | 14.9 µM (inactive) | 16.9 µM (inactive) | 22.9 µM (inactive) | 24.2 µM (inactive) | 13.3 µM (inactive) | 21.6 µM (inactive) | 14.3 µM (inactive) | 18.4 µM (inactive) | 13.8 µM (inactive) | 11.8 µM (inactive) | 18.3 µM (inactive) | 11.5 µM (inactive) | 18.9 µM (inactive)
COc1ccc(Nc2nc3ccc(C(F)(F)F)cc3nc2C(=O)O)cc1OC | 27.9 µM (inactive) | 35.2 µM (inactive) | 39.5 µM (inactive) | 36.2 µM (inactive) | 25.9 µM (inactive) | 25.9 | 16.9 µM (inactive) | 32.7 µM (inactive) | 16.1 µM (inactive) | 31.7 µM (inactive) | 36.7 µM (inactive) | 24.4 µM (inactive) | 20.2 µM (inactive) | 29.6 µM (inactive) | 24 µM (inactive) | 20.1 µM (inactive) | 18.9 µM (inactive) | 29.2 µM (inactive) | 21.7 µM (inactive) | 19.2 µM (inactive)
COc1ccc(-c2nc(O)c3ccccc3n2)cc1 | 47 µM (inactive) | > 10 µM (inactive) | 76.6 µM (inactive) | > 100 µM (inactive) | 77.1 µM (inactive) | 43.1 | > 100 µM (inactive) | > 100 µM (inactive) | > 100 µM (inactive) | > 100 µM (inactive) | 38.6 µM (inactive) | 87.5 µM (inactive) | 27.1 µM (inactive) | > 100 µM (inactive) | > 100 µM (inactive) | > 100 µM (inactive) | 45.4 µM (inactive) | > 100 µM (inactive) | 71.1 µM (inactive) | > 100 µM (inactive)
CO[C@@H]1C[C@H](OC(N)=O)[C@@H]2C=C[C@@H]3/C=C(C)/C=C/[C@@H](C)[C@H](/C(C)=C/[C@@H](C)NC(C)=O)OC(=O)/C=C/C=C(C)\C=C\[C@]3(C)[C@@H]2C1 [SUPERSTOLIDE B] | < 0.005 µM (active) | < 0.005 µM (active) | < 0.005 µM (active) | 0.0986 µM (active) | < 0.005 µM (active) | 0.00518 | < 0.005 µM (active) | < 0.005 µM (active) | 0.31 µM (active) | < 0.005 µM (active) | < 0.005 µM (active) | < 0.005 µM (active) | < 0.005 µM (active) | < 0.005 µM (active) | < 0.005 µM (active) | < 0.005 µM (active) | < 0.005 µM (active) | < 0.005 µM (active) | < 0.005 µM (active) | < 0.005 µM (active)
CC[C@H](CO)Nc1nc(NCc2ccccc2)c2ncn(C(C)C)c2n1 [SELICICLIB] | 48.1 µM (inactive) | 12.8 µM (inactive) | 6.17 µM (inactive) | 19.1 µM (inactive) | 5.09 µM (inactive) | 19.3 | 5.26 µM (inactive) | 13.3 µM (inactive) | 25.1 µM (inactive) | 19.3 µM (inactive) | 19.2 µM (inactive) | 13.2 µM (inactive) | 6.97 µM (inactive) | 4.9 µM (inactive) | 25.5 µM (inactive) | 10.7 µM (inactive) | 5.4 µM (inactive) | 82.4 µM (inactive) | 8.07 µM (inactive) | 13.6 µM (inactive)
